One block for each compound: values may come before it.
What was measured:
[1] = Half life in rat; format: ADME, organism-based; conditions: in vivo
JAK3/JAK1 [2] = target: T1, JAK3/JAK1 (Homo sapiens, UniProt P23458+P52333); assay: Inhibition of JAK1/JAK3 in human PBMC CD3+/CD8+ T cells assessed as reduction in IL7-stimulated STAT5 phosphorylation
[3] = target: Tyrosine-protein kinase JAK1/JAK3 (Mus musculus, UniProt P52332+Q62137); assay: Inhibition of JAK3/JAK1 in mouse CTLL-2 cells assessed as reduction in IL2-stimulated STAT5 phosphorylation; format: cell-based
JAK3/JAK1 [4] = target: T1, JAK3/JAK1; assay: Inhibition of JAK1/JAK3 in human whole blood CD3+/CD4+ T cells assessed as reduction in IL7-stimulated STAT5 phosphorylation
Homo sapiens [5] = organism: Homo sapiens; assay: Selectivity ratio of IC50 for JAK2 (unknown origin) to IC50 for JAK3 (unknown origin)
Homo sapiens [6] = organism: Homo sapiens; assay: Selectivity ratio of IC50 for TYK2 (unknown origin) to IC50 for JAK3 (unknown origin)
Homo sapiens [7] = organism: Homo sapiens; assay: Selectivity ratio of IC50 for JAK1 (unknown origin) to IC50 for JAK3 (unknown origin)
[8] = target: T2, Tyrosine-protein kinase JAK3 (Homo sapiens) (UniProt P52333); assay: Binding affinity to JAK3 (unknown origin) assessed as dissociation half life
T2 sequence (whole entry): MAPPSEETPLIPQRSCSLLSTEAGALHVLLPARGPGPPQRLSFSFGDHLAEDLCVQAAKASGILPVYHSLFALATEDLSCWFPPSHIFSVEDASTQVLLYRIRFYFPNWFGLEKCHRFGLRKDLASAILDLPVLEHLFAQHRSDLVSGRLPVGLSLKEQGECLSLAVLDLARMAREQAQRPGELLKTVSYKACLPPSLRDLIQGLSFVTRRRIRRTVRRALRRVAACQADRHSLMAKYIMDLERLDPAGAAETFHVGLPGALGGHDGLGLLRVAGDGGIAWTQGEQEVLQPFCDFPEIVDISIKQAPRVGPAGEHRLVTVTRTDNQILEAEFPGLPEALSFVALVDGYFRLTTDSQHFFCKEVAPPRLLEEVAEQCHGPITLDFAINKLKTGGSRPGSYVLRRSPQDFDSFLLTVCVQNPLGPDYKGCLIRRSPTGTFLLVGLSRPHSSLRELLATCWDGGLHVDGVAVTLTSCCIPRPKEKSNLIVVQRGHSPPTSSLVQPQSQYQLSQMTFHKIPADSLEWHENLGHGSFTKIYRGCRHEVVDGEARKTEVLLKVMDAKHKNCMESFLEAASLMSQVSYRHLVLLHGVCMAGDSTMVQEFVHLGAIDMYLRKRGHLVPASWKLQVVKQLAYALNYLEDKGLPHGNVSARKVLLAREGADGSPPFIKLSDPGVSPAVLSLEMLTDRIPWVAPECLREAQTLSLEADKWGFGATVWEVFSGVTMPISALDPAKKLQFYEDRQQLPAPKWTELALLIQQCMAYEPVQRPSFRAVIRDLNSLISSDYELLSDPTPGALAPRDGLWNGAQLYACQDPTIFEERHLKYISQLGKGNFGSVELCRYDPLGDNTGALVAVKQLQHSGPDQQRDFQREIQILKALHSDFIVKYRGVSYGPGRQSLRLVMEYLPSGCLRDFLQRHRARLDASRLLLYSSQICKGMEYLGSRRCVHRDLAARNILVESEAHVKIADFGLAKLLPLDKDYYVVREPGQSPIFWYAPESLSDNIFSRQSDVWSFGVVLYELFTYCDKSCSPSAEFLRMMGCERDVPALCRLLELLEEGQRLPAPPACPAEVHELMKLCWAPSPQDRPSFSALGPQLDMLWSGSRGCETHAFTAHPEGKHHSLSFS

[9] = target: Tyrosine-protein kinase JAK2 (Homo sapiens, UniProt O60674); assay: Time-dependent inhibition of recombinant human N-terminal His-tagged JAK2 (826 to 1132 residues) expressed in sf21 cells using biotinylated peptide substrate after 1 hr by DELFIA
Chain of Tyrosine-protein kinase JAK2 (O60674 whole entry, the tested form may be a part): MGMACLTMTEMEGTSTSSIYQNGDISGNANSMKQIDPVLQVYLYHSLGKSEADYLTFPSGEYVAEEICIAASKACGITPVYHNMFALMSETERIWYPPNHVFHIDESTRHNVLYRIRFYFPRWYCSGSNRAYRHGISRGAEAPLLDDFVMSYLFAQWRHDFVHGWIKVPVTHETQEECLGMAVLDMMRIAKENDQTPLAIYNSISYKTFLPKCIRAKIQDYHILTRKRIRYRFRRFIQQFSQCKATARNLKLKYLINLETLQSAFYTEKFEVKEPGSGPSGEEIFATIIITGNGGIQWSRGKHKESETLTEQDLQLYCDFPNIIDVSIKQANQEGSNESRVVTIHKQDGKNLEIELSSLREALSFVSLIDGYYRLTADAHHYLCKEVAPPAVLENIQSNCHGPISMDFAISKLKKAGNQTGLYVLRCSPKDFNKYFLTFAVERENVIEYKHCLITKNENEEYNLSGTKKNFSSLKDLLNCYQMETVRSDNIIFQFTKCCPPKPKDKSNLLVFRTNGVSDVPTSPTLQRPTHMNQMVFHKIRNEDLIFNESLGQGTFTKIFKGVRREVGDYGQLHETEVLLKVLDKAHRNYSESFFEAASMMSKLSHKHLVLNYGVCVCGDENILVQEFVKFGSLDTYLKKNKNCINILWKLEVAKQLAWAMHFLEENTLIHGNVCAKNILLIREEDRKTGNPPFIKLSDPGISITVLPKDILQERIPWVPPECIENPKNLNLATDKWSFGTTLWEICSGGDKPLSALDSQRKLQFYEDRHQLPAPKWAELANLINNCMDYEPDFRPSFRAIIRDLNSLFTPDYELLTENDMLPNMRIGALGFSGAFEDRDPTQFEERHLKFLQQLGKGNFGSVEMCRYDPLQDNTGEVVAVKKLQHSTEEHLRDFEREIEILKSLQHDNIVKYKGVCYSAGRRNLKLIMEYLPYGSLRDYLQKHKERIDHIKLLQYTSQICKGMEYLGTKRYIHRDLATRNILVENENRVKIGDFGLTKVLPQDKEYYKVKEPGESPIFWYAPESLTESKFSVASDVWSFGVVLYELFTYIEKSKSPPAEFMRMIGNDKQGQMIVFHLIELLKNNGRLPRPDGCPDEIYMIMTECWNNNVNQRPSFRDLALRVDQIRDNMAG

T1 sequence (P23458 whole entry, one chain of several): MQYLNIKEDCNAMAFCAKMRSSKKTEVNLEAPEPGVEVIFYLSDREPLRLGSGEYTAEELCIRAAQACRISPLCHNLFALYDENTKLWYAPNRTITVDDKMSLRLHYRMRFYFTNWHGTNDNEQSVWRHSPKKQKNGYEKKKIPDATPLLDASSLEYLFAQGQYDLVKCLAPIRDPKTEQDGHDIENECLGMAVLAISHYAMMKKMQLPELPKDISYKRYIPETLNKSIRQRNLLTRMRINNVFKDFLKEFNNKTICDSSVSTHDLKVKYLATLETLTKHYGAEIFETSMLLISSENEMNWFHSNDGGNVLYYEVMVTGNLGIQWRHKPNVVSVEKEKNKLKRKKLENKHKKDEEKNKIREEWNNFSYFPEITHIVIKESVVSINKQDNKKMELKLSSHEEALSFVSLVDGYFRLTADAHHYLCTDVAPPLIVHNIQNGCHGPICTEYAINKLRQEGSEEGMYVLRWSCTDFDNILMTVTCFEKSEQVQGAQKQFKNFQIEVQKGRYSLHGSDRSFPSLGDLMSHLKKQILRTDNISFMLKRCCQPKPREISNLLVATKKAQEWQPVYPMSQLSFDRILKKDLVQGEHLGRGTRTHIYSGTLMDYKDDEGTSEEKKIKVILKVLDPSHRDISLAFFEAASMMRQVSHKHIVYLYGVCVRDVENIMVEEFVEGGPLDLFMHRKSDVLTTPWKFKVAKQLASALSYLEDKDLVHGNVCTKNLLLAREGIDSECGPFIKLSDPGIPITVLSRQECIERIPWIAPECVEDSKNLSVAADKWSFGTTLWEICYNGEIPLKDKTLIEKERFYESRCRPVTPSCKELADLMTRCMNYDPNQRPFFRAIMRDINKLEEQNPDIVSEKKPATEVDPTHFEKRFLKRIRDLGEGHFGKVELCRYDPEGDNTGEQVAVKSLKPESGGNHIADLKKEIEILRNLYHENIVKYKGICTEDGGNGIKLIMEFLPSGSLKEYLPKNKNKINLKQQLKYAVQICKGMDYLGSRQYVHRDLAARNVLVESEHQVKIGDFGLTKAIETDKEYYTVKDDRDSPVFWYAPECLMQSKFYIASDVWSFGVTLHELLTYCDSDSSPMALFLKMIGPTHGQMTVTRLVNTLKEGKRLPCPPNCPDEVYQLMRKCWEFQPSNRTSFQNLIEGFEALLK

half-life [1]: 0.3 h
IC50 (JAK3/JAK1 [2]): 280 nM
IC50 [3]: 70 nM
IC50 (JAK3/JAK1 [4]): 5100 nM
SMILES: C=C(C)C(=O)Nc1cccc(-c2ncnc3[nH]cc(C(=O)OCC)c23)c1

Ratio IC50 (Homo sapiens [5]): 70
Ratio IC50 (Homo sapiens [6]): 160
Ratio IC50 (Homo sapiens [7]): 70
SMILES: c1nc(-c2cn(CC3CO3)nn2)c2cc[nH]c2n1 (centres undefined)

T1/2 [8]: 9 h
SMILES: CN(C)C(=O)/C(C#N)=C/c1ccc(Nc2cnc3[nH]cc(C(=O)C(C)(C)C)c3n2)cc1

IC50 [9]: 40 nM
SMILES: C=CC(=O)Nc1ccc2ncn(-c3cncc(NC(C)(C)C)n3)c2c1

Reference: ChEMBL document CHEMBL4177572, “Recent advances in JAK3 inhibition: Isoform selectivity by covalent cysteine targeting” (Bioorg Med Chem Lett, 2017)
